This experiment addresses T1, BTK (Homo sapiens, UniProt Q06187).
T1 construct: purchased Upstate 14-552
Briefly: In vitro BTK kinase assay (BTK-POLYGAT-LS). The experiment is classed as biochemical. The note with it: IC50 (10 uM ATP). On the procedure:
In vitro BTK Kinase Assay
The purpose of the BTK in vitro assay is to determine compound potency against BTK through the measurement of IC50. […] For a typical assay, a 24 μL aliquot of a ATP/peptide master mix (final concentration; ATP 10 μM, polyGAT 100 nM) in kinase buffer (10 mM Tris-HCl pH 7.5, 10 mM MgCl2, 200 μM Na3PO4, 5 mM DTT, 0.01% Triton X-100, and 0.2 mg/ml casein) is added to each well. […] The assay is incubated for 30 minutes before being stopped with 28 μL of a 50 mM EDTA solution. […] The plate is covered and incubated for 45 minutes at room temperature.
T1 sequence (Q06187 whole entry): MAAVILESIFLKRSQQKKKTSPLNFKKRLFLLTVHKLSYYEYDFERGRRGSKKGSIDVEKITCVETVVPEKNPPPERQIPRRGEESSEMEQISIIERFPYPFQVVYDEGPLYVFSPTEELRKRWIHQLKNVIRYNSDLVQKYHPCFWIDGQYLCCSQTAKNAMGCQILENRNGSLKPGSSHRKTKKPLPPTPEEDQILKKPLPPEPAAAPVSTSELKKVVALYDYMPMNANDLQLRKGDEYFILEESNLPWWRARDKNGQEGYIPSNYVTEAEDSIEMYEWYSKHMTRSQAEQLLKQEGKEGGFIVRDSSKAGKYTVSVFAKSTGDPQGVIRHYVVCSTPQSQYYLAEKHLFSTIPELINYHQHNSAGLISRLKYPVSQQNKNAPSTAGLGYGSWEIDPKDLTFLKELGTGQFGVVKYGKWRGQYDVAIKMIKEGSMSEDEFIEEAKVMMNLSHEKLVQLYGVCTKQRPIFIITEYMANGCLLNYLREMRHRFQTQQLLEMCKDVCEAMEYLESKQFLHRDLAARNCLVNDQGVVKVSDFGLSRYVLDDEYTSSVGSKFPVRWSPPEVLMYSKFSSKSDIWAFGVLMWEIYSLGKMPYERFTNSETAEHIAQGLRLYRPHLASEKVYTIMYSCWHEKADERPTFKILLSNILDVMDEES
What is called IC50 is the concentration that gives 50% inhibition. Read a high IC50 as lower potency. Compound `C[C@@H]1[C@@H](Nc2ncnc3[nH]ncc23)CCCN1C(=O)CNc1cc(Cl)cc(Cl)c1` [Compound 28] showed a 50% inhibitory concentration (IC50) of 100 to 999 nM.

`Nc1ncnc(N[C@H]2CCCN(C(=O)CNc3cc(Cl)cc(Cl)c3)C2)c1F` [Compound 110] came in with an IC50 of 100 to 999 nM.

In turn, `CCC1C(Nc2ncnc3[nH]ncc23)CCCN1C(=O)CNc1cc(F)cc(Cl)c1` (stereo not drawn) [Compound 4] registered an IC50 of less than 100 nM.

In turn, `CN1CCN(C(=O)c2ccc(-c3cnc4[nH]ccc4c3N[C@H]3CCCN(C(=O)CNc4cc(Cl)cc(Cl)c4)C3)cc2)CC1` [Compound 1] returned a half-maximal inhibitory concentration (IC50) of less than 100 nM.

`O=C(CNc1ccccc1Cl)N1CCC[C@H](Nc2ncnc3[nH]ncc23)C1` [Compound 202] showed an IC50 greater than 10000 nM.

`CC1C(Nc2ncnc3[nH]ccc23)CCCN1C(=O)CNc1cc(F)cc(Cl)c1` (stereo not drawn) [Compound 71] came in with an IC50 of less than 100 nM.

Take `CC1C(Nc2ncnc3[nH]ncc23)CCCN1C(=O)CNc1ccccc1S(=O)(=O)c1ccccc1` (stereo not drawn) [Compound 63]: the half-inhibitory concentration (IC50) is less than 100 nM.

Consider `CN(c1ncnc2[nH]ccc12)C1CC2CC1N(C(=O)CNc1cc(Cl)cc(Cl)c1)C2` (stereo not drawn) [Compound 163], for which the IC50 fell in the range of 1000 to 10000 nM.

`CC1CC2CCN(C(=O)CNc3cc(Cl)cc(Cl)c3)CC2N1c1ncnc2[nH]ccc12` (stereo not drawn) [Compound 74] showed a concentration for half-maximal inhibition (IC50) of less than 100 nM.

`CC1C(Nc2ncnc3[nH]ncc23)CCCN1C(=O)CNc1cc(Cl)cc(C(F)(F)F)c1` (stereo not drawn) [Compound 58] showed an IC50 of less than 100 nM.

The compound `O=C(CNc1cc(Cl)cc(C(F)(F)F)c1)N1CCCC(Nc2ncnc3[nH]ccc23)C1C(F)(F)F` (stereo not drawn) [Compound 17] returned an IC50 of less than 100 nM.

For the compound `CN(c1ncnc2c1CCC(=O)N2)[C@H]1CCCN(C(=O)CNc2cc(Cl)cc(Cl)c2)C1` [Compound 129], the IC50 was greater than 10000 nM.

In turn, `CN(c1ncnc2[nH]ccc12)[C@H]1CCCN(C(=O)CNc2cc(Cl)cc(C(F)(F)F)c2)C1` [Compound 142] returned an IC50 of 100 to 999 nM.

As for `O=C(CNc1cccc(Cl)c1)N1CCCC(Nc2ncnc3[nH]ccc23)C1C(F)(F)F` (stereo not drawn) [Compound 20], the IC50 is less than 100 nM.

The compound `CC1C(Nc2ncnc3[nH]ncc23)CCCN1C(=O)CNc1ccccc1S(=O)(=O)N1CCCC1` (stereo not drawn) [Compound 70] returned an IC50 of less than 100 nM.

`O=C(CNc1ccc(C(F)(F)F)cc1)N1CCC[C@H](Nc2ncnc3[nH]ncc23)C1` [Compound 198] displayed a half-inhibitory concentration (IC50) greater than 10000 nM.

As for `COc1c(N)ncnc1N[C@H]1CCCN(C(=O)CNc2cc(Cl)cc(Cl)c2)C1` [Compound 168], the concentration for half-maximal inhibition (IC50) was greater than 10000 nM.

In the case of `CC1C(Nc2ncnc3[nH]ccc23)CCCN1C(=O)CNc1ccccc1S(=O)(=O)N1CCCCC1` (stereo not drawn) [Compound 66], the IC50 was less than 100 nM.

The compound `Nc1nccc(N[C@H]2CCCN(C(=O)CNc3cc(Cl)cc(Cl)c3)C2)n1` [Compound 164] yielded an IC50 greater than 10000 nM.

Regarding `O=C(CNc1cc(Cl)cc(Cl)c1)N1CCC[C@@H](Nc2c(-c3ccc(C(=O)N4CCC(O)CC4)cc3)cnc3[nH]ccc23)C1` [Compound 2], the half-maximal inhibitory concentration (IC50) is less than 100 nM.

`CCC[C@@H](Nc1cc(Cl)cc(Cl)c1)C(=O)N1CCCC(Nc2ncnc3[nH]ncc23)C1C` (stereo partly drawn) [Compound 61] returned an IC50 of less than 100 nM.

`CC1C(N(C)c2ncnc(N)c2F)CCCN1C(=O)CNc1cc(Cl)cc(Cl)c1` (stereo not drawn) [Compound 49] gave an IC50 of less than 100 nM.

With `CC(=O)Nc1cc(N[C@H]2CCCN(C(=O)CNc3cc(Cl)cc(Cl)c3)C2)ncn1` [Compound 109], the 50% inhibitory concentration (IC50) is greater than 10000 nM.

As for `C[C@@H]1[C@H](Nc2ncnc3[nH]ncc23)CCCN1C(=O)CNc1ccccc1S(=O)(=O)N1CCCCC1` [Compound 22], the IC50 was less than 100 nM.

Consider `CCC[C@@H](Nc1cccc(Cl)c1)C(=O)N1CCC2CCN(c3ncnc4[nH]ccc34)C2C1` (stereo partly drawn) [Compound 102], for which the half-maximal inhibitory concentration (IC50) was less than 100 nM.

As for `O=C(CNc1cc(Cl)cc(Cl)c1)N1CCCC(N(CCc2ccccc2)c2ncnc3[nH]ccc23)C1` (stereo not drawn) [Compound 97], the half-maximal inhibitory concentration (IC50) was greater than 10000 nM.

Regarding `O=CNc1cnc(Br)cc1N(C=O)[C@H]1CCCN(C(=O)CNc2cc(Cl)cc(Cl)c2)C1` [Compound 120], the IC50 is greater than 10000 nM.

On to `CC(=O)Nc1cc(N(C)[C@H]2CCCN(C(=O)CNc3cc(Cl)cc(Cl)c3)C2)ncn1` [Compound 128], for which the IC50 was greater than 10000 nM.

`CN(c1cc(N)ncn1)[C@H]1CCCN(C(=O)CNc2cc(Cl)cc(Cl)c2)C1` [Compound 144] had a half-inhibitory concentration (IC50) greater than 10000 nM.

`O=C(CNc1ccc(F)cc1)N1CCC[C@H](Nc2ncnc3[nH]ccc23)C1` [Compound 193]: the half-maximal inhibitory concentration (IC50) is greater than 10000 nM.

With `O=C(Nc1cc(Cl)cc(Cl)c1)C(=O)N1CCCC(Nc2ncnc3[nH]ccc23)C1` (stereo not drawn) [Compound 225], the half-maximal inhibitory concentration (IC50) is greater than 10000 nM.

The compound `CNc1cc(NC2CCCN(C(=O)CNc3cc(Cl)cc(Cl)c3)C2)ncn1` (stereo not drawn) [Compound 83] returned a 50% inhibitory concentration (IC50) of 100 to 999 nM.

`CN(c1ncnc(N)c1C(N)=O)[C@H]1CCCN(C(=O)CNc2cc(Cl)cc(Cl)c2)C1` [Compound 125] yielded a concentration for half-maximal inhibition (IC50) greater than 10000 nM.

For the compound `O=C(CNc1ccccc1C(F)(F)F)N1CCC[C@H](Nc2ncnc3[nH]ccc23)C1` [Compound 197], the IC50 was greater than 10000 nM.

`O=C(CNc1ccc(Cl)cc1)N1CCC[C@H](Nc2ncnc3[nH]ncc23)C1` [Compound 184] yielded an IC50 greater than 10000 nM.

`O=C(CNc1ccccc1Cl)N1CCC[C@H](Nc2ncnc3[nH]ccc23)C1` [Compound 199]: the IC50 is greater than 10000 nM.

On to `CC[C@@H](Nc1cc(Cl)cc(Cl)c1)C(=O)N1CCCC(Nc2ncnc3[nH]ccc23)C1C` (stereo partly drawn) [Compound 72], for which the concentration for half-maximal inhibition (IC50) is less than 100 nM.

Regarding `C[C@@H]1C[C@@H]2CCN(C(=O)CNc3cc(Cl)cc(Cl)c3)C[C@@H]2N1c1ncnc2[nH]ccc12` [Compound 46], the half-maximal inhibitory concentration (IC50) was less than 100 nM.

Compound `O=C(CNc1cc(C(F)(F)F)cc(C(F)(F)F)c1)N1CCC[C@H](Nc2ncnc3[nH]ncc23)C1` [Compound 185] showed a 50% inhibitory concentration (IC50) of 1000 to 10000 nM.

The compound `O=C(CNc1cccc(F)c1)N1CCC[C@H](Nc2ncnc3[nH]ccc23)C1` [Compound 188] registered a 50% inhibitory concentration (IC50) of 1000 to 10000 nM.

As to `O=C(CNc1cccc(F)c1)N1CCC[C@H](Nc2ncnc3[nH]ncc23)C1` [Compound 182], the half-inhibitory concentration (IC50) is greater than 10000 nM.

`O=C([C@H](Nc1cc(Cl)cc(Cl)c1)C1CC1)N1CCC[C@H](Nc2ncnc3[nH]ccc23)C1` [Compound 206] showed a 50% inhibitory concentration (IC50) of 1000 to 10000 nM.

Consider `O=C(CNc1cc(Cl)cc(Cl)c1)N1CCC[C@@H](Nc2ncnc3[nH]ccc23)[C@H]1C(F)(F)F` [Compound 12], for which the IC50 is less than 100 nM.

Turning to `N#Cc1c(N)ncnc1N[C@H]1CCCN(C(=O)CNc2cc(Cl)cc(Cl)c2)C1` [Compound 161], the IC50 is greater than 10000 nM.

In turn, `O=C(CNc1cc(Cl)cc(Cl)c1)N1CC[C@@H](Nc2ncnc3[nH]ncc23)C1` [Compound 153] returned a half-maximal inhibitory concentration (IC50) greater than 10000 nM.

`CC1C(Nc2ncnc3[nH]ccc23)CCCN1C(=O)[C@@H](C)Nc1cc(Cl)cc(Cl)c1` (stereo partly drawn) [Compound 81] yielded a half-maximal inhibitory concentration (IC50) of less than 100 nM.

In the case of `CN(c1ncnc2[nH]ncc12)[C@H]1CCCN(C(=O)CNc2cc(F)cc(Cl)c2)C1` [Compound 146], the half-maximal inhibitory concentration (IC50) was 1000 to 10000 nM.

Turning to `O=C(CNc1cccc(Cl)c1)N1CCC[C@H](Nc2ncnc3[nH]ncc23)C1` [Compound 201], the 50% inhibitory concentration (IC50) lay in the range of 1000 to 10000 nM.

Take `O=C(CNc1cc(Cl)cc(Cl)c1)N1CC(Nc2ncnc3[nH]ccc23)Cc2ccccc21` (stereo not drawn) [Compound 190]: the IC50 lay in the range of 100 to 999 nM.

The compound `CN1CCN(C(=O)c2cnc3[nH]ccc3c2N[C@@H]2CCCN(C(=O)CNc3cc(Cl)cc(Cl)c3)C2)CC1` [Compound 230] returned an IC50 of 100 to 999 nM.

`O=C(CNc1cc(Cl)cc(Cl)c1)N1CC2CC(Nc3ncnc4[nH]ncc34)C1C2` (stereo not drawn) [Compound 171] showed an IC50 of less than 100 nM.

The compound `C[C@@H]1C[C@H](N(C)c2ncnc3[nH]ccc23)CN(C(=O)CNc2cc(Cl)cc(Cl)c2)C1` [Compound 98] had an IC50 of less than 100 nM.

On to `O=C(CNc1ccccc1F)N1CCC[C@H](Nc2ncnc3[nH]ccc23)C1` [Compound 194], for which the half-inhibitory concentration (IC50) is greater than 10000 nM.

In turn, `CC(C)C1C(Nc2ncnc3[nH]ccc23)CCCN1C(=O)CNc1cc(Cl)cc(Cl)c1` (stereo not drawn) [Compound 34] registered a half-maximal inhibitory concentration (IC50) of less than 100 nM.

The compound `Nc1cc(N2CCC3CCN(C(=O)CNc4cc(Cl)cc(Cl)c4)CC32)ncn1` (stereo not drawn) [Compound 159] came in with an IC50 of less than 100 nM.

`Nc1nc(N[C@H]2CCCN(C(=O)CNc3cc(Cl)cc(Cl)c3)C2)c2cc[nH]c2n1` [Compound 157]: the concentration for half-maximal inhibition (IC50) was greater than 10000 nM.

The compound `O=C(CNc1ccccc1S(=O)(=O)N1CCCCC1)N1CCC[C@@H](Nc2ncnc3[nH]ccc23)C1` [Compound 221] showed a half-inhibitory concentration (IC50) of 100 to 999 nM.

As to `O=C(CNc1cc(Cl)cc(Cl)c1)N1CCC[C@H](N(CCc2ccccc2)c2ncnc3[nH]ccc23)C1` [Compound 119], the IC50 was greater than 10000 nM.

In the case of `C[C@@H]1C[C@H]2CCN(C(=O)CNc3cc(Cl)cc(Cl)c3)C[C@H]2N1c1ncnc2[nH]ccc12` [Compound 47], the IC50 was less than 100 nM.

Compound `CN(c1ncnc2[nH]ccc12)C1CCCN(C(=O)CNc2cc(Cl)cc(C(F)(F)F)c2)C1C(F)(F)F` (stereo not drawn) [Compound 13] had an IC50 of less than 100 nM.

(Values after patent US9273028B2, “Heterocyclic tyrosine kinase inhibitors” (Biogen MA Inc., priority 2010, dated 2016).)
